Blank lines part the entries; values can stand above or below the molecule they belong to. Activity calls are given as the source filed them. The calls are words filed in the database; no cut-off is given here. Numbered stars: 1 amine (or outer) side, 2 acyl side, 3 side chain; on linkers, the order of the positions; unused ones are H or OH. Square brackets hold non-standard residues; d marks the D form. Side chains are listed from the residue outwards. Peptide text beside a SMILES is read from it. * marks the point of attachment. C20 diacid = O=C(O)CCCCCCCCCCCCCCCCCCC(=O)*; C18 diacid = O=C(O)CCCCCCCCCCCCCCCCC(=O)*; γGlu = O=C(O)[C@H](CCC(=O)[*:2])N[*:1]; Palmitoyl = CCCCCCCCCCCCCCCC(=O)*; AEEA = NCCOCCOCC(=O)O; Aib = CC(C)(N)C(=O)O
Tests used:
[1] = test system: Mus musculus; experiment: Reduction in serum AST in DIO mouse at 30 nmol/kg, sc treated every 2 and half day once measured after 21 days; type: functional, organism-based; details: time 21.0 day
[2] = target: T1, Glucagon-like peptide 1 receptor (Homo sapiens, UniProt P43220); experiment: Agonist activity at human GLP-1 receptor expressed in HEK293 cells assessed as cAMP level measured after 60 mins by HTRF based assay; type: functional, cell-based
T1 sequence (P43220 whole entry): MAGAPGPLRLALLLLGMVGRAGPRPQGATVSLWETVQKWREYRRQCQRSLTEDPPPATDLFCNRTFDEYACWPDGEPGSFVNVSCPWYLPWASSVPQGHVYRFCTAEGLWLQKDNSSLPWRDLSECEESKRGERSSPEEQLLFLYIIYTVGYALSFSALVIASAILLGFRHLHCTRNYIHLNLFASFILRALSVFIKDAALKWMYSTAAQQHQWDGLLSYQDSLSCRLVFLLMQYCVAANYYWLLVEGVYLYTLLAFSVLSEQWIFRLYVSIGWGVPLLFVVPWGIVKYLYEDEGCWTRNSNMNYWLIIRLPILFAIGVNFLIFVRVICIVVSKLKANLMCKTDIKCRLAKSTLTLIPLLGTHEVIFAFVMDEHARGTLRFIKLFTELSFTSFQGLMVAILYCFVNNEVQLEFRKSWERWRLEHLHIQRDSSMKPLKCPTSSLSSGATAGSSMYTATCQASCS

[3] = test system: Mus musculus; experiment: Reduction in body weight in DIO mouse at 30 nmol/kg, sc treated every 2 and half day once measured after 21 days; type: functional; parameters: scale not given: the % may be the effect or the level left
[4] = test system: Mus musculus; experiment: Reduction in feed intake in DIO mouse at 30 nmol/kg, sc treated twice a day measured after 21 days; type: functional, organism-based; details: time 21.0 day
[5] = test system: Mus musculus; experiment: Reduction in serum ALT in DIO mouse at 30 nmol/kg, sc treated every 2 and half day once measured after 21 days; type: functional, organism-based; details: time 21.0 day
[6] = test system: Mus musculus; experiment: Antihyperglycemic effect in DIO mouse assessed as antihyperglycemic duration by measuring blood glucose at 30 nmol/kg, sc administered twice daily measured by hypoglycemic duration assay; type: functional, organism-based
[7] = test system: Mus musculus; experiment: Anorexigenic effect in ICR mouse assessed as decrease in food intake at 30 nmol/kg, sc measured upto 72 hrs by acute food intake study; type: functional, organism-based
[8] = target: T2, Gastric inhibitory polypeptide receptor (Homo sapiens, UniProt P48546); experiment: Agonist activity at human GIPR receptor expressed in HEK293 cells assessed as cAMP level measured after 60 mins by HTRF based assay; type: functional, cell-based
T2 sequence (P48546 whole entry): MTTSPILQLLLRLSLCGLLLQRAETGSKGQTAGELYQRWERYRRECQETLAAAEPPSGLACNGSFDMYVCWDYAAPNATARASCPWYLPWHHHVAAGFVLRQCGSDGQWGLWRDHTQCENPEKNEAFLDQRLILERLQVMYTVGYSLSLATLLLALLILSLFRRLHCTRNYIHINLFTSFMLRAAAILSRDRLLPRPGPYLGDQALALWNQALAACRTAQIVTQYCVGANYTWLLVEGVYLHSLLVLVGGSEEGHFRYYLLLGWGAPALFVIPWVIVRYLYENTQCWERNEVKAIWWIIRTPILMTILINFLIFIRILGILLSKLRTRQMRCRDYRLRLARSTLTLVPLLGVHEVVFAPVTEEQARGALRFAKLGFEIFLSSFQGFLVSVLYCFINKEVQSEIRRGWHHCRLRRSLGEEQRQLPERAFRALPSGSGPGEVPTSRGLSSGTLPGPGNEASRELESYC

[9] = test system: Mus musculus; experiment: Hypoglycemic effect in ICR mouse treated with 3 g/kg glucose assessed as reduction in blood glucose level at 100 nmol/kg, sc measured upto 120 mins by acute glucose lowering test; type: functional, organism-based
[10] = target: T3, Glucagon receptor (Homo sapiens, UniProt P47871); experiment: Agonist activity at human GCGR expressed in HEK293 cells assessed as cAMP level measured after 60 mins by HTRF based assay; type: functional, cell-based
T3 sequence (P47871 whole entry): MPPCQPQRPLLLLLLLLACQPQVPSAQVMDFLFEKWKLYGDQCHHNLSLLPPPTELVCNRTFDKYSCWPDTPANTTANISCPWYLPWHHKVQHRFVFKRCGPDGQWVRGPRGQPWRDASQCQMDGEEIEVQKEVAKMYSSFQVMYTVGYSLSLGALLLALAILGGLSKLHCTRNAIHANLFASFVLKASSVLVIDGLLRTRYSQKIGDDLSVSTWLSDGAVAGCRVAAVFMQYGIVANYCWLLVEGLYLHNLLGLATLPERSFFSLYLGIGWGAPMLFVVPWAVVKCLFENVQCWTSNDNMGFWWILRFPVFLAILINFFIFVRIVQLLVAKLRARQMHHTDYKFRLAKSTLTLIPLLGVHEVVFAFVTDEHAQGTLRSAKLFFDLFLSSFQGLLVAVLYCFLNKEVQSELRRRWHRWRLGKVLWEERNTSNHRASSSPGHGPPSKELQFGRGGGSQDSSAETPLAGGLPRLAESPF

[11] = test system: Mus musculus; experiment: Anorexigenic effect in ICR mouse assessed as decrease in food intake at 30 nmol/kg, sc measured at 48 hrs by acute food intake study; type: functional, organism-based
[12] = test system: Mus musculus; experiment: Hypoglycemic effect in ICR mouse treated with 3 g/kg glucose assessed as reduction in blood glucose level at 30 nmol/kg, sc measured upto 120 mins pretreated with GLP-1R and GIPR antagonist by OGTT; type: functional, organism-based
[13] = test system: Mus musculus; experiment: Antihyperglycemic effect in non-fasted DIO mouse assessed as decrease in blood glucose at 30 nmol/kg, sc measured upto 48 hrs; type: functional, organism-based
[14] = target: T4, Gastric inhibitory polypeptide receptor (Homo sapiens) (UniProt P48546); experiment: Agonist activity at human GIPR receptor expressed in HEK293 cells assessed as cAMP level by measuring relative percent (GIP EC50/compound EC50) measured after 60 mins by HTRF based assay relative to GIP; type: functional, cell-based
T4 sequence (whole entry): T2 sequence (P48546 whole entry)

[15] = target: T1, Glucagon-like peptide 1 receptor; experiment: Agonist activity at human GLP-1 receptor expressed in HEK293 cells assessed as cAMP level by measuring relative percent (GLP-1 EC50/compound EC50) measured after 60 mins by HTRF based assay relative to GLP-1; type: functional, cell-based; details: filed as agonist
[16] = target: T3, Glucagon receptor; experiment: Agonist activity at human GCGR expressed in HEK293 cells assessed as cAMP level by measuring relative percent (glucagon EC50/compound EC50) measured after 60 mins by HTRF based assay relative to glucagon; type: functional, cell-based
[17] = test system: Mus musculus; experiment: Hypoglycemic effect in ICR mouse treated with 3 g/kg glucose assessed as reduction in blood glucose level at 30 nmol/kg, sc measured upto 120 mins pretreated with GLP-1R antagonist by OGTT; type: functional, organism-based

Molecule: CC[C@H](C)[C@H](NC(=O)[C@H](Cc1ccccc1)NC(=O)[C@H](C)NC(=O)C(C)(C)NC(=O)[C@H](CCC(N)=O)NC(=O)[C@H](C)NC(=O)[C@H](CCCCNC(=O)COCCOCCNC(=O)CC[C@H](NC(=O)CCCCCCCCCCCCCCCCCCC(=O)O)C(=O)O)NC(=O)[C@H](CCCCN)NC(=O)[C@H](CC(=O)O)NC(=O)[C@H](CC(C)C)NC(=O)[C@](C)(CC(C)C)NC(=O)[C@@H](NC(=O)[C@H](CO)NC(=O)[C@H](Cc1ccc(O)cc1)NC(=O)[C@H](CC(=O)O)NC(=O)[C@H](CO)NC(=O)[C@@H](NC(=O)[C@H](Cc1ccccc1)NC(=O)[C@@H](NC(=O)CNC(=O)[C@H](CCC(N)=O)NC(=O)C(C)(C)NC(=O)[C@@H](N)Cc1ccc(O)cc1)[C@@H](C)O)[C@@H](C)O)[C@@H](C)CC)C(=O)N[C@@H](CCC(=O)O)C(=O)N[C@@H](Cc1ccc(O)cc1)C(=O)N[C@@H](CC(C)C)C(=O)N[C@@H](CC(C)C)C(=O)N[C@@H](CCC(=O)O)C(=O)NCC(=O)NCC(=O)N1CCC[C@H]1C(=O)N[C@@H](CO)C(=O)N[C@@H](CO)C(=O)NCC(=O)N[C@@H](C)C(=O)N1CCC[C@H]1C(=O)N1CCC[C@H]1C(=O)N1CCC[C@H]1C(=O)N[C@@H](CO)C(N)=O
Activity [1]: Active | EC50 [2]: 0.041 nM | Activity ([3]; time 21 day): 38.5% | Activity [4]: Active | Activity [5]: Active | Activity [6]: Active | Activity [7]: Active | EC50 [8]: 0.022 nM | Activity [9]: Active | EC50 [10]: 0.23 nM | Activity [11]: Active | Activity [12]: inactive

EC50 [2]: 0.021 nM
Molecule: CCCCCCCCCCCCCCCC(=O)N[C@@H](CCC(=O)NCCCC[C@H](NC(=O)[C@H](C)NC(=O)[C@H](C)NC(=O)[C@H](CCC(=O)O)NC(=O)[C@H](CCC(=O)O)NC(=O)[C@H](CCC(=O)O)NC(=O)[C@H](CC(C)C)NC(=O)[C@H](Cc1ccc(O)cc1)NC(=O)[C@H](CO)NC(=O)[C@H](CO)NC(=O)[C@H](CCSC)NC(=O)[C@H](CC(=O)O)NC(=O)[C@H](CO)NC(=O)[C@@H](NC(=O)[C@H](Cc1ccccc1)NC(=O)[C@@H](NC(=O)CNC(=O)[C@H](CC(=O)O)NC(=O)C(C)(C)NC(=O)[C@@H](N)Cc1c[nH]cn1)[C@@H](C)O)[C@@H](C)O)C(=O)N[C@@H](CCC(=O)O)C(=O)N[C@@H](Cc1ccccc1)C(=O)N[C@H](C(=O)N[C@@H](CC(=O)O)C(=O)N[C@@H](Cc1c[nH]c2ccccc12)C(=O)N[C@@H](CC(C)C)C(=O)N[C@H](C(=O)N[C@@H](CCCCN)C(=O)NCC(=O)N[C@@H](CCCNC(=N)N)C(=O)N1CCC[C@H]1C(=O)N[C@@H](C)C(N)=O)[C@@H](C)CC)C(C)C)C(=O)O (H-H[Aib]DGTFTSDMSSYLEEEAAK([γGlu-Palmitoyl])EFVDWLIKGRPA-NH2)
Activity [13]: inactive

Molecule: CC[C@H](C)[C@H](NC(=O)[C@H](CCCCNC(=O)COCCOCCNC(=O)COCCOCCNC(=O)CC[C@H](NC(=O)CCCCCCCCCCCCCCCCC(=O)O)C(=O)O)NC(=O)[C@H](CCC(=O)O)NC(=O)[C@H](CCSC)NC(=O)[C@H](C)NC(=O)[C@H](CCCNC(=N)N)NC(=O)[C@H](CO)NC(=O)[C@H](CCSC)NC(=O)[C@H](CC(=O)O)NC(=O)[C@H](CO)NC(=O)[C@@H](NC(=O)[C@H](Cc1ccccc1)NC(=O)[C@@H](NC(=O)CNC(=O)[C@H](CCC(N)=O)NC(=O)C(C)(C)NC(=O)[C@@H](N)Cc1c[nH]cn1)[C@@H](C)O)[C@@H](C)O)C(=O)N[C@@H](C)C(=O)N[C@H](C(=O)N[C@@H](CCCNC(=N)N)C(=O)N[C@@H](CC(C)C)C(=O)N[C@@H](Cc1ccccc1)C(=O)N[C@H](C(=O)N[C@@H](CC(=O)O)C(=O)N[C@@H](Cc1c[nH]c2ccccc12)C(=O)N[C@@H](CC(C)C)C(=O)N[C@H](C(=O)N[C@@H](CCC(=O)O)C(=O)NCC(=O)NCC(=O)N1CCC[C@H]1C(=O)N[C@@H](CO)C(=O)N[C@@H](CO)C(=O)NCC(=O)N[C@@H](C)C(=O)N1CCC[C@H]1C(=O)N1CCC[C@H]1C(=O)N1CCC[C@H]1C(=O)N[C@@H](CO)C(N)=O)[C@@H](C)CC)C(C)C)C(C)C (H-H[Aib]QGTFTSDMSRAMEK([AEEA-AEEA-γGlu-C18 diacid])IAVRLFVDWLIEGGPSSGAPPPS-NH2)
Activity [14]: 3% | EC50 [2]: 0.019 nM | Activity [15]: 279% | EC50 [8]: 0.83 nM | Activity [16]: 15% | EC50 [10]: 0.61 nM

Molecule: CC[C@H](C)[C@H](NC(=O)[C@H](CCCCNC(=O)COCCOCCNC(=O)COCCOCCNC(=O)CC[C@H](NC(=O)CCCCCCCCCCCCCCCCCCC(=O)O)C(=O)O)NC(=O)[C@H](CCC(=O)O)NC(=O)[C@H](CCSC)NC(=O)[C@H](C)NC(=O)[C@H](CCCNC(=N)N)NC(=O)[C@H](CO)NC(=O)[C@H](CCSC)NC(=O)[C@H](CC(=O)O)NC(=O)[C@H](CO)NC(=O)[C@@H](NC(=O)[C@H](Cc1ccccc1)NC(=O)[C@@H](NC(=O)CNC(=O)[C@H](CCC(N)=O)NC(=O)C(C)(C)NC(=O)[C@@H](N)Cc1c[nH]cn1)[C@@H](C)O)[C@@H](C)O)C(=O)N[C@@H](C)C(=O)N[C@H](C(=O)N[C@@H](CCCNC(=N)N)C(=O)N[C@@H](CC(C)C)C(=O)N[C@@H](Cc1ccccc1)C(=O)N[C@H](C(=O)N[C@@H](CC(=O)O)C(=O)N[C@@H](Cc1c[nH]c2ccccc12)C(=O)N[C@@H](CC(C)C)C(=O)N[C@H](C(=O)N[C@@H](CCC(=O)O)C(=O)NCC(=O)NCC(=O)N1CCC[C@H]1C(=O)N[C@@H](CO)C(=O)N[C@@H](CO)C(=O)NCC(=O)N[C@@H](C)C(=O)N1CCC[C@H]1C(=O)N1CCC[C@H]1C(=O)N1CCC[C@H]1C(=O)N[C@@H](CO)C(N)=O)[C@@H](C)CC)C(C)C)C(C)C (H-H[Aib]QGTFTSDMSRAMEK([AEEA-AEEA-γGlu-C20 diacid])IAVRLFVDWLIEGGPSSGAPPPS-NH2)
Activity [14]: 3% | EC50 [2]: 0.02 nM | Activity [15]: 265% | EC50 [8]: 0.89 nM | Activity [16]: 12% | EC50 [10]: 0.8 nM

Molecule: SEMAGLUTIDE
Activity [1]: Active | Activity [17]: inactive | Activity ([3]; time 21.0 day): 18.6% | Activity [5]: Active | Activity [6]: Active | Activity [7]: Active | Activity [9]: Active

Source: ChEMBL document CHEMBL5532661, “Discovery of a Novel Glucagon-like Peptide-1 (GLP-1) Analogue from Bullfrog and Investigation of Its Potential for Designing GLP-1-Based Multiagonists” (J Med Chem, 2024)
